This is an account of results in patent US20100055218A1, “NOVEL COMPOSITIONS” (priority 2006, published 2010).

The test system of assay [1] is RAW267.7. As to the kind of experiment: Inhibition of PGE2 production in LPS-activated macrophages (EIA). The format is cell-based, murine. The note with it: Mus musculus, Macrophage; for IC50: read-out: IC50 PGE2. How it is done: (§1) The anti-inflammatory effects of rosehip and ligustilide, hydroxytyrosol, magnolol, and genistein were evaluated in activated macrophages by determining the inhibition of the synthesis of nitric oxide and/or proinflammatory prostaglandins (PG). PGE2 plays a critical role in the inflammation process, while nitric oxide (NO) is a hallmark of inflammation in various chronic inflammatory diseases including various forms of arthritis, gastro-intestinal diseases and metabolic syndrome.
(§2) Biologically standardized rosehip powder was obtained from Hyben Vital International, Langeland, Denmark, and dissolved in DMSO. Ligustilide and genistein was synthesized by DSM Nutritional Products. Hydroxytyrosol was from Cayman Chemicals or synthesized by DSM Nutritional Products. Magnolol was obtained from Apin Chemicals Ltd, UK. According to the suppliers' data sheet all products were >90% pure and obtained in powder form. […] The anti-inflammatory effects of compounds was tested in cellular assays using a murine macrophage indicator cell line, RAW267.7, which was purchased from American Type Culture Collection, (ATCC) and cultured in DMEM according to the protocol provided by ATCC. Cells (˜50'000/well) were seeded into flat-bottomed microtiter plates and cultured for one day. Cells were then starved in complete medium containing 0.25% fetal calf serum (FCS) (D-025). After overnight culture, medium was removed and replaced by 100 μL of D-025 containing the test compounds at twice the final concentration. Subsequently, 100 μL of D-025 containing 2 μg/ml lipopolysaccharide (LPS) was added (i.e. final LPS concentration of 1 μg/ml) and the cells were cultured for 24 hours. Substances were usually tested in a concentration range from 0.2 to 50 μM in two-fold dilution steps. In the case of rosehip extract, the concentration range was from 3-2000 μg/ml. Concentrations of nitrite which was generated from nitric oxide released by cells were determined by the Griess reaction (see e.g Imai et al. Biochem Biophys Res Comm, 197, 105 [1993]) using sodium nitrite as standard. Briefly, 50 μl of supernatant was mixed with Griess reagent 1 (25 μL) and Griess reagent 2 (25 μL), centrifuged and the optical density at 540 nm determined. PGE2 secreted into the cell culture medium was determined by EIA obtained from Cayman Chemicals (Ann Harbor, Wis., USA) and used according to the manufacturer's instructions. IC50 values were calculated using a […] least-square fitting equation [y=A+((B−A)/(1+((C−x)̂D))] for best-fit curves (Excel fit software program).

Assay [2] concerns RAW267.7. As to the kind of experiment: Inhibition of nitric oxide production in LPS-activated macrophages (nitrite, Griess reaction). The note with it: Mus musculus, Macrophage; for IC50: read-out: IC50 Nitric Oxide. It counts as cell-based, murine. How it is done: as §1, §2
A general note: The Griess reaction detects nitrite, a stable product of nitric oxide.

Setting [3] is: single substance, LPS 1 μg/ml, 24 hours.
[4] abbreviates: 6.25 μmol/L, read-out: % inhibition of NO production.

What is called IC50 is the concentration that gives 50% inhibition. For orientation: inhibition means the change of the read-out against control, counted positive when it falls. As to `CCC/C=C1\OC(=O)C2=C1CCC=C2` [Ligustilide, ligustilide], the IC50 with RAW267.7 [1] (setting [3]) is 10 ± 2 µM; in the assay with RAW267.7 [2] (setting [3]), 15 ± 1 µM. For the same molecule, in the assay on RAW267.7 [2] (setting [4]), the inhibition at 6.25 µM worked out at 5%.
Consider `O=c1c(-c2ccc(O)cc2)coc2cc(O)cc(O)c12` [Genistein, 4′,5,7-trihydroxyisoflavone], for which the IC50 with RAW267.7 [1] (setting [3]) came to 5 ± 1 µM; with RAW267.7 [2] (setting [3]) it was 37 ± 2 µM. For the same molecule, the inhibition at 25 µM in the assay on RAW267.7 [2] (25 μmol/L, read-out: % inhibition of NO production) was 24%.
On to `OCCc1ccc(O)c(O)c1` [OH-Tyrosol, 3,4 dihydroxyphenylethanol], for which the IC50 in the assay with RAW267.7 [1] (setting [3]) was 24 ± 3 µM; in the assay on RAW267.7 [2] (setting [3]), 28 ± 2 µM. Further, the inhibition at 6.25 µM in the assay on RAW267.7 [2] (setting [4]) is -5%. The inhibition at 12.5 µM in the assay on RAW267.7 [2] (12.5 μmol/L, read-out: % inhibition of NO production) came out at 9%.
Take `C=CCc1ccc(O)c(-c2cc(CC=C)ccc2O)c1` [Magnolol, 5,5′-Diallyl-2,2′-biphenyldiol]: the IC50 with RAW267.7 [1] (24 h) came to 2 ± 1 µM; with RAW267.7 [2] (24 h), 10 ± 2 µM. The inhibition at 6.25 µM in the assay with RAW267.7 [1] (read-out: % inhibition of PGE2 production) was 57%; in the assay on RAW267.7 [2] (read-out: % inhibition of NO production) it was 2%.
